Activity calls are given as the source filed them. The rule behind the calls is not given here.
Tested on: CCRIS mutagenicity, Ames/micronucleus/aberration tests
Test: CCRIS mutagenicity studies
[1] = Test System: AMES SALMONELLA TYPHIMURIUM, Strain/Indicator: TA98, Metabolic Activation: NONE, Method: STANDARD PLATE
[2] = Test System: AMES SALMONELLA TYPHIMURIUM, Strain/Indicator: TA100, Metabolic Activation: NONE, Method: STANDARD PLATE
[3] = Test System: AMES SALMONELLA TYPHIMURIUM, Strain/Indicator: TA98, Metabolic Activation: RAT, LIVER, S-9, AROCLOR 1254, Method: STANDARD PLATE
[4] = Test System: AMES SALMONELLA TYPHIMURIUM, Strain/Indicator: TA100, Metabolic Activation: RAT, LIVER, S-9, AROCLOR 1254, Method: STANDARD PLATE
[5] = Test System: AMES SALMONELLA TYPHIMURIUM, Strain/Indicator: TA1535, Metabolic Activation: NONE, Method: STANDARD PLATE
[6] = Test System: AMES SALMONELLA TYPHIMURIUM, Strain/Indicator: TA1535, Metabolic Activation: RAT, LIVER, S-9, AROCLOR 1254, Method: STANDARD PLATE
[7] = Test System: AMES SALMONELLA TYPHIMURIUM, Strain/Indicator: TA1537, Metabolic Activation: NONE, Method: STANDARD PLATE
[8] = Test System: AMES SALMONELLA TYPHIMURIUM, Strain/Indicator: TA1537, Metabolic Activation: RAT, LIVER, S-9, AROCLOR 1254, Method: STANDARD PLATE

## O=[N+]([O-])c1ccc2c(c1)cc([N+](=O)[O-])c1ccccc12
Test System: AMES SALMONELLA TYPHIMURIUM, Strain/Indicator: TA98(1,8-DNP6), Metabolic Activation: NONE, Method: STANDARD PLATE
  mutagenic call: active; positive
Test System: AMES SALMONELLA TYPHIMURIUM, Strain/Indicator: TA98(NR), Metabolic Activation: NONE, Method: STANDARD PLATE
  mutagenic call: active; positive
[1]
  mutagenic call: active; positive
[2]
  mutagenic call: active; positive
Test System: AMES SALMONELLA TYPHIMURIUM, Strain/Indicator: YG1021, Metabolic Activation: NONE, Method: STANDARD PLATE
  mutagenic call: active; positive
Test System: AMES SALMONELLA TYPHIMURIUM, Strain/Indicator: YG1024, Metabolic Activation: NONE, Method: STANDARD PLATE
  mutagenic call: active; positive
Test System: AMES SALMONELLA TYPHIMURIUM, Strain/Indicator: YG1026, Metabolic Activation: NONE, Method: STANDARD PLATE
  mutagenic call: active; positive
Test System: AMES SALMONELLA TYPHIMURIUM, Strain/Indicator: YG1029, Metabolic Activation: NONE, Method: STANDARD PLATE
  mutagenic call: active; positive

## C[C@H](CCC(=O)NCCS(=O)(=O)O)[C@H]1CC[C@H]2[C@@H]3C[C@H](O)[C@@H]4C[C@H](O)CC[C@]4(C)[C@H]3CC[C@]12C
[1]
  mutagenic call: inactive; negative
[3]
  mutagenic call: inactive; negative
[2]
  mutagenic call: inactive; negative
[4]
  mutagenic call: inactive; negative
[5]
  mutagenic call: inactive; negative
[6]
  mutagenic call: inactive; negative
[7]
  mutagenic call: inactive; negative
[8]
  mutagenic call: inactive; negative
Test System: AMES SALMONELLA TYPHIMURIUM, Strain/Indicator: TA1538, Metabolic Activation: NONE, Method: STANDARD PLATE
  mutagenic call: inactive; negative
Test System: AMES SALMONELLA TYPHIMURIUM, Strain/Indicator: TA1538, Metabolic Activation: RAT, LIVER, S-9, AROCLOR 1254, Method: STANDARD PLATE
  mutagenic call: inactive; negative

## O=C(Nc1ccccc1Cl)c1csc([N+](=O)[O-])c1
[1]
  mutagenic call: active; positive
[2]
  mutagenic call: active; positive

## CC(C)OC(=O)C(C)(C)Oc1ccc(C(=O)c2ccc(Cl)cc2)cc1
[1]
  mutagenic call: inactive; negative
Test System: AMES SALMONELLA TYPHIMURIUM, Strain/Indicator: TA98, Metabolic Activation: RAT, LIVER, S-9, PHENOBARBITAL AND 5,6-BENZOFLAVONE, Method: STANDARD PLATE
  mutagenic call: inactive; negative
[2]
  mutagenic call: inactive; negative
Test System: AMES SALMONELLA TYPHIMURIUM, Strain/Indicator: TA100, Metabolic Activation: RAT, LIVER, S-9, PHENOBARBITAL AND 5,6-BENZOFLAVONE, Method: STANDARD PLATE
  mutagenic call: inactive; negative
[5]
  mutagenic call: inactive; negative
Test System: AMES SALMONELLA TYPHIMURIUM, Strain/Indicator: TA1535, Metabolic Activation: RAT, LIVER, S-9, PHENOBARBITAL AND 5,6-BENZOFLAVONE, Method: STANDARD PLATE
  mutagenic call: inactive; negative
[7]
  mutagenic call: inactive; negative
Test System: AMES SALMONELLA TYPHIMURIUM, Strain/Indicator: TA1537, Metabolic Activation: RAT, LIVER, S-9, PHENOBARBITAL AND 5,6-BENZOFLAVONE, Method: STANDARD PLATE
  mutagenic call: inactive; negative
Test System: E. COLI, Strain/Indicator: WP2 UVRA, Metabolic Activation: NONE, Method: STANDARD PLATE
  mutagenic call: inactive; negative
Test System: E. COLI, Strain/Indicator: WP2 UVRA, Metabolic Activation: RAT, LIVER, S-9, PHENOBARBITAL AND 5,6-BENZOFLAVONE, Method: STANDARD PLATE
  mutagenic call: inactive; negative

## C[As](O)O
End Point: In vitro micronucleus, Test System: Human peripheral lymphocytes, Metabolic Activation: None
  mutagenic call: active; positive in all subjects only at highest dose
Test System: Mouse lymphoma, Strain/Indicator: L5178Y (TK+/TK-), Metabolic Activation: None, Method: Microwell
  mutagenic call: active; positive

## Brc1cc(Br)c(-c2cc(Br)c(Br)cc2Br)cc1Br
Test System: CHINESE HAMSTER V-79, Strain/Indicator: V-79 (HGPRT)/6-THIOGUANINE, Metabolic Activation: NONE
  mutagenic call: inactive; negative

## Cl/C=C/CCl
End Point: IN VITRO CHROMOSOMAL ABERRATIONS, Test System: CHL CELLS, Metabolic Activation: RAT, LIVER, S-9, SODIUM PHENOBARBITAL AND 5,6-BENZOFLAVONE
  mutagenic call: active; positive (structural and ploidy changes)
End Point: IN VITRO CHROMOSOMAL ABERRATIONS, Test System: CHO CELLS, Metabolic Activation: NONE
  mutagenic call: inactive; negative; previous trial yielded positive result at 49.1 ug/ml but no dose-respo
End Point: IN VITRO CHROMOSOMAL ABERRATIONS, Test System: CHO CELLS, Metabolic Activation: RAT, LIVER, S-9, AROCLOR 1254
  mutagenic call: inactive; negative
Test System: AMES SALMONELLA TYPHIMURIUM, Strain/Indicator: RSJ100, Metabolic Activation: NONE, Method: VAPOR PHASE
  mutagenic call: active; positive
Test System: AMES SALMONELLA TYPHIMURIUM, Strain/Indicator: TA98, Metabolic Activation: HAMSTER, LIVER, S-9, AROCLOR 1254, Method: STANDARD PLATE
  mutagenic call: active; positive
Test System: AMES SALMONELLA TYPHIMURIUM, Strain/Indicator: TA98, Metabolic Activation: NONE, Method: DESICCATOR
  mutagenic call: active; positive
[1]
  mutagenic call: active; positive
Test System: AMES SALMONELLA TYPHIMURIUM, Strain/Indicator: TA98, Metabolic Activation: RAT, LIVER, S-9, AROCLOR 1254, Method: DESICCATOR
  mutagenic call: active; positive
[3]
  mutagenic call: active; positive
Test System: AMES SALMONELLA TYPHIMURIUM, Strain/Indicator: TA100, Metabolic Activation: HAMSTER, LIVER, S-9, AROCLOR 1254, Method: STANDARD PLATE
  mutagenic call: active; positive
Test System: AMES SALMONELLA TYPHIMURIUM, Strain/Indicator: TA100, Metabolic Activation: NONE, Method: DESICCATOR
  mutagenic call: active; positive
[2]
  mutagenic call: active; positive
Test System: AMES SALMONELLA TYPHIMURIUM, Strain/Indicator: TA100, Metabolic Activation: RAT, LIVER, S-9, AROCLOR 1254, Method: DESICCATOR
  mutagenic call: active; positive
[4]
  mutagenic call: active; positive
Test System: AMES SALMONELLA TYPHIMURIUM, Strain/Indicator: TA1535, Metabolic Activation: HAMSTER, LIVER, S-9, AROCLOR 1254, Method: STANDARD PLATE
  mutagenic call: active; positive
Test System: AMES SALMONELLA TYPHIMURIUM, Strain/Indicator: TA1535, Metabolic Activation: NONE, Method: DESICCATOR
  mutagenic call: active; positive
[5]
  mutagenic call: active; positive
Test System: AMES SALMONELLA TYPHIMURIUM, Strain/Indicator: TA1535, Metabolic Activation: RAT, LIVER, S-9, AROCLOR 1254, Method: DESICCATOR
  mutagenic call: active; positive
[6]
  mutagenic call: active; positive
Test System: AMES SALMONELLA TYPHIMURIUM, Strain/Indicator: TA1537, Metabolic Activation: HAMSTER, LIVER, S-9, AROCLOR 1254, Method: STANDARD PLATE
  mutagenic call: inactive; negative
[7]
  mutagenic call: inactive; negative
[8]
  mutagenic call: inactive; negative
Test System: AMES SALMONELLA TYPHIMURIUM, Strain/Indicator: TPT100, Metabolic Activation: NONE, Method: VAPOR PHASE
  mutagenic call: active; positive
Test System: UDS HUMAN HEPATOCYTES, Strain/Indicator: THY INCORP, Metabolic Activation: NONE, Method: AUTORADIOGRAPHY
  mutagenic call: active; positive
Test System: UDS RAT HEPATOCYTES, Strain/Indicator: THY INCORP, Metabolic Activation: NONE, Method: AUTORADIOGRAPHY
  mutagenic call: active; positive
Test System: UDS RAT HEPATOCYTES, Strain/Indicator: THY INCORP, Metabolic Activation: NONE, Method: IN VIVO-IN VITRO
  mutagenic call: inactive; negative

From PubChem BioAssay AID1259407 (Chemical Carcinogenesis Research Information System (CCRIS), 2018)
